Source: patent US20020022586A1, “Method for treating a patient with neoplasia by treatment with a pyrimidine analog” (priority 1998, published 2002)

Columns and labels:
HT-29 cells [1] = assay: Apoptosis by DNA fragmentation assay in HT-29 cells; format: cell-based, human; set-up: Apoptosis: key to the marks not given beside the values
COX = COX inhibition; format: biochemical
cGMP-PDE [2] = test system: T1, cGMP-PDE; assay: cGMP-PDE inhibition assay, enzyme from HT-29 tumor cells; format: biochemical, human; set-up: PDE Inhibition: key to the marks not given beside the values
T1 construct: other: 10 μM; other: 100 μM; other: enzyme from HT-29 cells; other: 20 μM

cGMP-PDE [3] = assay: as above; format: biochemical, human; set-up: PDE Inhibition: key to the marks not given beside the values; details: activity profile
PDE4 = PDE4 inhibition assay, enzyme from HT-29 tumor cells; format: biochemical, human; details: enzyme from HT-29 cells
Description: Cyclic GMP labeled with tritium (^3H-cGMP) is used as the substrate for the PDE enzymes. (Thompson, W. J., Teraski, W. L., Epstein, P. M., Strada, S. J., Advances in Cyclic Nucleotide Research, 10:69-92, 1979, which is incorporated herein by reference).
In brief, a solution of defined substrate ^3H-cGMP specific activity is mixed with the drug to be tested. The mixture is incubated with isolated PDE activity (either a single PDE or a mixture of PDE activities). The degree of phosphodiesterase inhibition is determined by calculating the amount of radioactivity released in drug-treated reactions and comparing those against a control sample (a reaction mixture lacking the tested compound but with the drug solvent).
Reference compounds and test compounds were analyzed for their cGMP-PDE inhibitory activity in accordance with the protocol for the assay described supra. […] Both compounds show selectivity for the cGMP-PDE isoenzyme forms over PDE4 isoforms.

HT-29 cells [4] = assay: HT-29 tumor cell growth inhibition, SRB assay; format: cell-based, human; set-up: Growth Inhibition: key to the marks not given beside the values
[5] = test system: premalignant lesions in mouse mammary gland organ culture; assay: Mammary gland organ culture model; format: cell-based; details: activity profile; further: key: −: Not active; +: Slightly active; ++: Moderately active; +++: Strongly active; ++++: Highly active
Description: For example, female BALB/c mice can be treated with a combination of estradiol and progesterone daily, in order to prime the glands to be responsive to hormones in vitro. The animals are sacrificed and thoracic mammary glands are excised aseptically and incubated for ten days in growth media supplemented with insulin, prolactin, hydrocortisone, and aldosterone. DMBA (7,12-dimethylbenz(a)anthracene) is added to medium to induce the formation of premalignant lesions. Fully developed glands are then deprived of prolactin, hydrocortisone, and aldosterone, resulting in the regression of the glands but not the premalignant lesions.
The test compound is dissolved in DMSO and added to the culture media for the duration of the culture period. At the end of the culture period, the glands are fixed in 10% formalin, stained with alum carmine, and mounted on glass slides. The extent of the area occupied by the mammary lesions can be quantitated by projecting an image of the gland onto a digitation pad. The area covered by the gland is traced on the pad and considered as 100% of the area. The space covered by each of the unregressed structures is also outlined on the digitization pad and quantitated by the computer.
The incidence of forming mammary lesions is the ratio of the glands with mammary lesions to […]. The incidence of mammary lesions in test compound treated glands is compared with that of the untreated glands.
Mammary gland organ culture experiments were performed as previously described (Mehta and Moon, Cancer Research, 46: 5832-5835, 1986). […] The data support the hypothesis that cyclooxygenase inhibition is not necessary for the anti-neoplastic properties of desired compounds.

With `COc1cc(/C=C2/C(C)=C(CC(=O)O)c3cc(F)ccc32)cc(OC)c1OC` [Compound B, (Z)-5-Fluoro-2-methyl-1-(3,4,5-trimethoxybenzylidene)-3-acetic acid] the fold induction at 100 µM (HT-29 cells [1]; Homo sapiens, HT-29, 100 μM, read-out: Apoptosis inducing activity, Fold induction at 100 μM) was over 2, the EC50 (HT-29 cells [1]; Homo sapiens, HT-29, 48 hours, DNA fragmentation, read-out: EC50 for apoptosis induction) was about 175 µM and the Apoptosis (HT-29 cells [1]; activity profile) was “+++”. The “COX Inhibition” value (COX; 100 μM) was “did not inhibit COX”, the “COX Inhibition” value (COX; activity profile) was “−” and the “cGMP PDE % Inhibition at 100 μM” value (cGMP-PDE [2]; 100 μM) was under 25%. For the same compound, the IC50 (cGMP-PDE [2]; enzyme from HT-29 cells) was 18 µM, the “PDE Inhibition” value (cGMP-PDE [3]) was “+++” and the IC50 (PDE4) was 58 µM. For the same compound, the inhibition at 100 µM (HT-29 cells [4]; Homo sapiens, HT-29, 100 μM single dose, read-out: Growth inhibitory activity, % Inhibition at 100 μM) was 77%, the “Growth Inhibition” value (HT-29 cells [4]; activity profile) was “+++” and the “Mammary Gland Organ Culture” value [5] was “++”.
